Assay results taken from EP2966448B1, “METHOD FOR THE PREDICTION OR PROGNOSIS OF THE RESPONSE OF A HUMAN SUBJECT SUFFERING FROM CANCER TO TREATMENT WITH AN ANTAGONIST OF THE NK1 RECEPTOR” (priority 2013, dated 2014).
Like-named read-outs stand apart in the source and are kept apart here.

How the values were obtained:
[1] = test system: human primary tumor cells; assay: Inhibition of primary tumor cell cultures vs absence or presence of ERK  protein (Example 3; tumor type per table line); type: cell-based; settings: for Percentage of inhibition of cell cultures: 100 micromolar
Experimental: (§1) Cell cultures. […] Briefly, small pieces of the tumors were digested into a hyaluronidase solution (Sigma-Aldrich, USA) at a concentration of 1 mg/ml during 15 minutes at 37°C, and then they were treated with 6 mg/ml of collagenase type IV (Invitrogen) during 2 hours at 37°C. Consecutively, cells were washed, and resuspended in the DMEM culture medium with high concentration of glucose (Dulbecco's Modified Eagle's Medium, Invitrogen) supplemented with 1% of antibiotics-antimycotics (Invitrogen) and with 1% of sodium pyruvate (Invitrogen), and the cells were seeded in culture slides at a concentration of 10.000 cells per square centimeter. When cells reached confluence, the adherent cells were separated using sterile trypsin at 0,5% (Invitrogen) and they were used among passages 3 and 9. For the assays shown next, tumor cells were seeded on slides at a concentration of 25.000 cells per well. A total of 6 wells containing the tumor cells were used as survival control. […] All the cultures were kept during 48 hours and later on recollected for their analysis.
Consecutively, the cells were placed in cultures in the presence of several antagonists of the NK1 receptor.
In each case it was determined the presence or absence of the downstream effector in the MAP Kinases ERK pathway.
To determine the presence of the ERK protein, it was performed a Western Blot technique, using as primary antibody: Phospho-p44/42 MAPK (Erk1/2) (Thr202/Tyr204) (D13.14.4E) XP® Rabbit mAb (4370, Cell Signalling). To determine the presence of the MEK protein, it was performed the Western Blot technique, using as primary antibody Phospho-MEK1/2 (Ser217/221) (9121, Cell Signalling).
The antibody against NK1 receptor (Table 21) was used at 1/50 concentration. The percentages of inhibition are expressed in percentages of variation in relation to control ± standard deviation.

Colon carcinoma = assay: Inhibition of primary tumor cell cultures (48 hours) vs NK1 receptor immunostaining (Example 1); type: cell-based; settings: Homo sapiens, 1 micromolar, read-out: Percentage of inhibition of cell cultures
Experimental: (§2) Cell cultures. To obtain tumor cells from human primary tumors we used the method described in De Bari et al. (De Bari et al. 2001). Briefly, small pieces of the tumors were digested into a hyaluronidase solution (Sigma-Aldrich, USA) at a concentration of 1 mg/ml during 15 minutes at 37°C, and then they were treated with 6 mg/ml of collagenase type IV (Invitrogen) during 2 hours at 37°C. Consecutively, cells were washed, and resuspended in the DMEM culture medium with high concentration of glucose (Dulbecco's Modified Eagle's Medium, Invitrogen) supplemented with 1% of antibiotics-antimycotics (Invitrogen) and with 1% of sodium pyruvate (Invitrogen), and the cells were seeded in culture slides at a concentration of 10.000 cells per square centimeter. When cells reached confluence, the adherent cells were separated using sterile trypsin at 0,5% (Invitrogen) and they were used among passages 3 and 9. For the assays shown next, tumor cells were seeded on slides at a concentration of 25.000 cells per well. A total of 6 wells containing the tumor cells were used as survival control. […] All the cultures were kept during 48 hours and later on recollected for their analysis.
(§3) Immunohistochemistry techniques. The presence of NK1 receptors was also analyzed using immunohistochemistry techniques. Briefly, a sample of each of the cultures of the cell lines used in the present invention, was centrifuged (5 minutes at 1.500 rpm) and the pellet obtained was dehydrated using increasing concentrations of ethanol and, finally, xylol. Then, said dehydrated samples were embedded in paraffin, creating a block of cells. Such paraffin blocks were cut with a microtome at 5 microns thickness, and were placed on microscope slides adequate to perform immunohistochemistry techniques. Consecutively, they were de-paraffinized by immersing them in xylol, to be finally hydrated using a solution containing decreasing concentrations of ethanol, and finally submerged them into water. […] After this, the samples were left to cool down at room temperature for 10 minutes. The endogenous peroxidase activity was blocked with 3% peroxide of hydrogen for 30 minutes at room temperature. After washing the samples with 0.05 M of Tris buffer, they were incubated with 10% non-immune pork serum at for 30 minutes at room temperature. To analyze the expression of NK1 receptors, the cellular samples were incubated in the presence of anti-NK1 antibodies (S8305, Sigma-Aldrich) diluted 1:1000, overnight at 4°C. Afterwards, the samples were washed in Tris buffer 0.05 M at room temperature. The next step was the addition of Envision System-HRP (Dako) reagents for 30 minutes at room temperature. Then, the samples were washed again in Tris buffer 0.05 M and the immunoreactivity was visualized through light microscopy with a chromogenic solution containing 3,3'-Diaminobenzidine (DAB+; Dako, USA). To differentiate the cell nuclei, they were slightly stained with hematoxylin. As negative control, it was used samples not incubated with the primary antibody anti-NK1, which was replaced by non-immune serum. All the samples were evaluated.
(§4) To value the immunostaining in each of the cases six cuts were performed to be analyzed by the immunohistochemistry technique. In each of the six cuts, it was counted cells in 20 fields (magnification 400x) using an Olympus microscope (model CX31). In each field it was counted the total number of cells and the number of cells presenting immunostaining, calculating afterwards the percentage of cells which presented immunostaining.

[2] = test system: Thyroid carcinoma (follicular carcinoma); assay: Inhibition of primary tumor cell cultures vs Kras mutation (Example 2); type: cell-based, human; settings: Homo sapiens, 100 micromolar, read-out: Percentage of inhibition of cell cultures
Experimental: (§5) To obtain tumor cells from human primary tumors we used the method described in De Bari et al. (De Bari et al. 2001). Briefly, small pieces of the tumors were digested into a hyaluronidase solution (Sigma-Aldrich, USA) at a concentration of 1 mg/ml during 15 minutes at 37°C, and then they were treated with 6 mg/ml of collagenase type IV (Invitrogen) during 2 hours at 37°C. Consecutively, cells were washed, and resuspended in the DMEM culture medium with high concentration of glucose (Dulbecco's Modified Eagle's Medium, Invitrogen) supplemented with 1% of antibiotics-antimycotics (Invitrogen) and with 1% of sodium pyruvate (Invitrogen), and the cells were seeded in culture slides at a concentration of 10.000 cells per square centimeter. When cells reached confluence, the adherent cells were separated using sterile trypsin at 0,5% (Invitrogen) and they were used among passages 3 and 9. For the assays shown next, tumor cells were seeded on slides at a concentration of 25.000 cells per well. A total of 6 wells containing the tumor cells were used as survival control. […] All the cultures were kept during 48 hours and later on recollected for their analysis.
(§6) In each case the presence or not of mutations in K-ras gene was determined.
(§7) To determine the existence of mutations in the K-ras gene DNA from cancer tumor cells was extracted from samples obtained from the different cancer tumor cells, using DNA extraction kits from Takara (Madison, WI, US) or Ambion (Huntingdon, Cambridgeshire, United Kingdom), following the manufacturer's instructions, and as it has been previously published (Di Fiore F, et al. 2007). Consecutively it was analyzed by sequencing the exon 2 of the KRAS gene, , by means of PCR amplification from previously extracted cancer tumor DNA, using the following sense primer (SEQ ID NO. 15): 5'-[sequence]-3' and anti-sense primer (SEQ ID NO. 16): 5'-[sequence]-3'. After the purification using the Qiagen extraction kit, the PCR products were sequenced using the Big Dye Terminator Kit V3.1 (Applied Biosystems, Foster City, CA, U.S.) and an ABI Prism 377 or 3100 DNA sequencer (Applied Biosystems). The presence of a heterozygous mutation in the KRAS gene in cancer tumor cells of the cultures was defined as the appearance of a mutant peak of a height of at least a third of the wild type. All the sequence analysis were executed at least twice in two independent PCR.
(§8) The antibody against NK1 receptor (Table 16) was used at 1/50 concentration. The percentages of inhibition are expressed in percentage of variation in relation to control ± standard deviation.

[3] = test system: Urinary bladder carcinoma (transitional cell carcinoma); assay: as above; type: cell-based, human; settings: Homo sapiens, 100 micromolar, read-out: Percentage of inhibition of cell cultures
Experimental: as §5, §6, §7, §8

Endometrium carcinoma = assay: as above; type: cell-based, human; settings: Homo sapiens, 100 micromolar, read-out: Percentage of inhibition of cell cultures
Experimental: as §1, §6, §7, §8

[4] = test system: Lung carcinoma (non small cell type); assay: Inhibition of primary tumor cell cultures (48 hours) vs NK1 receptor immunostaining (Example 1); type: cell-based; settings: Homo sapiens, 1 micromolar, read-out: Percentage of inhibition of cell cultures
Experimental: as §2, §3, §4

Prostate carcinoma = assay: cells; settings: Homo sapiens, 1 micromolar
Experimental: as §2, §3, §4

[5] = test system: Carcinoma of the uterine cervix; assay: Inhibition of primary tumor cell cultures (48 hours) vs NK1 receptor immunostaining (Example 1); type: cell-based; settings: Homo sapiens, 1 micromolar, read-out: Percentage of inhibition of cell cultures
Experimental: as §2, §3, §4

[6] = test system: Thyroid carcinoma (papillary carcinoma); assay: Inhibition of primary tumor cell cultures vs Kras mutation (Example 2); type: cell-based, human; settings: Homo sapiens, 100 micromolar, read-out: Percentage of inhibition of cell cultures
Experimental: as §5, §6, §7, §8

[7] = NK1 receptor immunostaining Group 1 (less than 20% of the cells)
[8] = NK1 receptor immunostaining Group 2 (20-80% of the cells)
[9] = NK1 receptor immunostaining Group 3 (more than 80% of the cells)
[10] = NK1 receptor immunostaining Intensity grade 1
[11] = NK1 receptor immunostaining Intensity grade 2
[12] = NK1 receptor immunostaining Intensity grade 3
[13] = Cases with Kras non-mutated (wild type)

CC(=O)N1CCN([C@H]2CCN(C(=O)N(C)[C@H](C)c3cc(C(F)(F)F)cc(C(F)(F)F)c3)[C@@H](c3ccc(F)cc3C)C2)CC1 [Casopitant]
Percentage of inhibition of cell cultures ([1]; Colon carcinoma (Adenocarcinoma), cases without presence of ERK): 24±3 percentage | Percentage of inhibition of cell cultures ([1]; Endometrium carcinoma, cases with presence of ERK): 93±5 percentage | Percentage of inhibition of cell cultures ([1]; Endometrium carcinoma, cases without presence of ERK): 29±2 percentage | Percentage of inhibition of cell cultures ([1]; Gastric carcinoma (Adenocarcinoma), cases with presence of ERK): 96±4 percentage | Percentage of inhibition of cell cultures ([1]; Gastric carcinoma (Adenocarcinoma), cases without presence of ERK): 25±6 percentage | Percentage of inhibition of cell cultures ([1]; Glioma (astrocytoma), cases with presence of ERK): 93±4 percentage | Percentage of inhibition of cell cultures ([1]; Glioma (astrocytoma), cases without presence of ERK): 28±3 percentage | Percentage of inhibition of cell cultures ([1]; Lung carcinoma (non small cell lung carcinoma), cases with presence of ERK): 95±7 percentage | Percentage of inhibition of cell cultures ([1]; Lung carcinoma (non small cell lung carcinoma), cases without presence of ERK): 27±5 percentage | Percentage of inhibition of cell cultures ([1]; Lung carcinoma (small cell lung carcinoma), cases with presence of ERK): 94±5 percentage | Percentage of inhibition of cell cultures ([1]; Lung carcinoma (small cell lung carcinoma), cases without presence of ERK): 29±4 percentage | Percentage of inhibition of cell cultures ([1]; Melanoma (Nodular Melanoma), cases with presence of ERK): 96±5 percentage | Percentage of inhibition of cell cultures ([1]; Melanoma (Nodular Melanoma), cases without presence of ERK): 27±5 percentage | Percentage of inhibition of cell cultures ([1]; Non Hodgkin Lymphoma B (diffuse B cell lymphoma), cases with presence of ERK): 97±5 percentage | Percentage of inhibition of cell cultures ([1]; Non Hodgkin Lymphoma B (diffuse B cell lymphoma), cases without presence of ERK): 28±4 percentage | Percentage of inhibition of cell cultures ([1]; Non Hodgkin Lymphoma T (diffuse T cell lymphoma), cases with presence of ERK): 98±4 percentage | Percentage of inhibition of cell cultures ([1]; Non Hodgkin Lymphoma T (diffuse T cell lymphoma), cases without presence of ERK): 29±5 percentage | Percentage of inhibition of cell cultures ([1]; Ovarian carcinoma (Adenocarcinoma), cases with presence of ERK): 92±6 percentage | Percentage of inhibition of cell cultures ([1]; Ovarian carcinoma (Adenocarcinoma), cases without presence of ERK): 28±5 percentage | Percentage of inhibition of cell cultures ([1]; Pancreatic carcinoma (Adenocarcinoma), cases with presence of ERK): 94±2 percentage | Percentage of inhibition of cell cultures ([1]; Pancreatic carcinoma (Adenocarcinoma), cases without presence of ERK): 23±4 percentage | Percentage of inhibition of cell cultures ([1]; Prostate carcinoma, cases with presence of ERK): 94±5 percentage | Percentage of inhibition of cell cultures ([1]; Prostate carcinoma, cases without presence of ERK): 27±4 percentage | Percentage of inhibition of cell cultures ([1]; Renal cell carcinoma (clear cell renal cell carcinoma), cases with presence of ERK): 94±3 percentage | Percentage of inhibition of cell cultures ([1]; Renal cell carcinoma (clear cell renal cell carcinoma), cases without presence of ERK): 27±3 percentage | Percentage of inhibition of cell cultures ([1]; Thyroid carcinoma (follicular carcinoma), cases with presence of ERK): 96±6 percentage | Percentage of inhibition of cell cultures ([1]; Thyroid carcinoma (follicular carcinoma), cases without presence of ERK): 26±4 percentage | Percentage of inhibition of cell cultures ([1]; Thyroid carcinoma (papillary carcinoma), cases with presence of ERK): 97±4 percentage | Percentage of inhibition of cell cultures ([1]; Thyroid carcinoma (papillary carcinoma), cases without presence of ERK): 28±3 percentage | Percentage of inhibition of cell cultures ([1]; Undifferentiated Pleomorphic Sarcoma (malignant fibrous histiocytoma grade 3), cases with presence of ERK): 95±3 percentage | Percentage of inhibition of cell cultures ([1]; Undifferentiated Pleomorphic Sarcoma (malignant fibrous histiocytoma grade 3), cases without presence of ERK): 26±4 percentage | Percentage of inhibition of cell cultures ([1]; Urinary bladder carcinoma (transitional cell carcinoma), cases with presence of ERK): 98±2 percentage | Percentage of inhibition of cell cultures ([1]; Urinary bladder carcinoma (transitional cell carcinoma), cases without presence of ERK): 29±4 percentage | inhibition of cell proliferation ([1]; cancer cell cultures that show more presence of ERK, compared, non-peptidic antagonists 100 micromolar, antibody 1/50): higher inhibition | inhibition at 1 µM (Colon carcinoma; [7]): 13 ± 3% | inhibition at 1 µM (Colon carcinoma; [8]): 46 ± 3% | inhibition at 1 µM (Colon carcinoma; [9]): 92 ± 3% | inhibition at 1 µM (Colon carcinoma; [10]): 32 ± 4% | inhibition at 1 µM (Colon carcinoma; [11]): 54 ± 4% | inhibition at 1 µM (Colon carcinoma; [12]): 92 ± 2% | inhibition at 100 µM ([2]; Cases with Kras mutated): 26 ± 4% | inhibition at 100 µM [2, 13]: 96 ± 4% | inhibition at 100 µM ([3]; Cases with Kras mutated): 25 ± 4% | inhibition at 100 µM [3, 13]: 95 ± 6% | inhibition at 100 µM (Endometrium carcinoma; Cases with Kras mutated): 28 ± 2% | inhibition at 100 µM (Endometrium carcinoma; [13]): 94 ± 4% | inhibition at 1 µM [4, 7]: 10 ± 2% | inhibition at 1 µM [4, 8]: 46 ± 2% | inhibition at 1 µM [4, 9]: 92 ± 5% | inhibition at 1 µM [4, 10]: 32 ± 4% | inhibition at 1 µM [4, 11]: 54 ± 4% | inhibition at 1 µM [4, 12]: 93 ± 3% | inhibition at 1 µM (Prostate carcinoma; read-out: Percentage of inhibition of cell cultures, NK1 receptor immunostaining Group 1 (less than 20% of the cells)): 16 ± 2% | inhibition at 1 µM (Prostate carcinoma; read-out: Percentage of inhibition of cell cultures, NK1 receptor immunostaining Group 2 (20-80% of the cells)): 45 ± 4% | inhibition at 1 µM (Prostate carcinoma; read-out: Percentage of inhibition of cell cultures, NK1 receptor immunostaining Group 3 (more than 80% of the cells)): 93 ± 4% | inhibition at 1 µM (Prostate carcinoma; read-out: Percentage of inhibition of cell cultures, NK1 receptor immunostaining Intensity grade 1): 33 ± 5% | inhibition at 1 µM (Prostate carcinoma; read-out: Percentage of inhibition of cell cultures, NK1 receptor immunostaining Intensity grade 2): 53 ± 3% | inhibition at 1 µM (Prostate carcinoma; read-out: Percentage of inhibition of cell cultures, NK1 receptor immunostaining Intensity grade 3): 94 ± 2% | inhibition at 1 µM [5, 7]: 16 ± 3% | inhibition at 1 µM [5, 8]: 47 ± 4% | inhibition at 1 µM [5, 9]: 93 ± 3% | inhibition at 1 µM [5, 10]: 33 ± 3% | inhibition at 1 µM [5, 11]: 53 ± 3% | inhibition at 1 µM [5, 12]: 92 ± 2% | inhibition at 100 µM ([6]; Cases with Kras mutated): 24 ± 5% | inhibition at 100 µM [6, 13]: 94 ± 5%
